The values below come from publication PMC11509018, “Evaluation of the Role of Tanshinone I in an In Vitro System of Charcot-Marie-Tooth Disease Type 2N” (International Journal of Molecular Sciences, 2024).

This test concerns the target T1, AlaRS N71Y binding to GST-Nrp1 b1 (Homo sapiens, UniProt P49588, N71Y).
T1 construct: made in house; host or cells: E. coli BL21 (DE3), pET-21a for AlaRS
T1 sequence (P49588 1-968 N71Y): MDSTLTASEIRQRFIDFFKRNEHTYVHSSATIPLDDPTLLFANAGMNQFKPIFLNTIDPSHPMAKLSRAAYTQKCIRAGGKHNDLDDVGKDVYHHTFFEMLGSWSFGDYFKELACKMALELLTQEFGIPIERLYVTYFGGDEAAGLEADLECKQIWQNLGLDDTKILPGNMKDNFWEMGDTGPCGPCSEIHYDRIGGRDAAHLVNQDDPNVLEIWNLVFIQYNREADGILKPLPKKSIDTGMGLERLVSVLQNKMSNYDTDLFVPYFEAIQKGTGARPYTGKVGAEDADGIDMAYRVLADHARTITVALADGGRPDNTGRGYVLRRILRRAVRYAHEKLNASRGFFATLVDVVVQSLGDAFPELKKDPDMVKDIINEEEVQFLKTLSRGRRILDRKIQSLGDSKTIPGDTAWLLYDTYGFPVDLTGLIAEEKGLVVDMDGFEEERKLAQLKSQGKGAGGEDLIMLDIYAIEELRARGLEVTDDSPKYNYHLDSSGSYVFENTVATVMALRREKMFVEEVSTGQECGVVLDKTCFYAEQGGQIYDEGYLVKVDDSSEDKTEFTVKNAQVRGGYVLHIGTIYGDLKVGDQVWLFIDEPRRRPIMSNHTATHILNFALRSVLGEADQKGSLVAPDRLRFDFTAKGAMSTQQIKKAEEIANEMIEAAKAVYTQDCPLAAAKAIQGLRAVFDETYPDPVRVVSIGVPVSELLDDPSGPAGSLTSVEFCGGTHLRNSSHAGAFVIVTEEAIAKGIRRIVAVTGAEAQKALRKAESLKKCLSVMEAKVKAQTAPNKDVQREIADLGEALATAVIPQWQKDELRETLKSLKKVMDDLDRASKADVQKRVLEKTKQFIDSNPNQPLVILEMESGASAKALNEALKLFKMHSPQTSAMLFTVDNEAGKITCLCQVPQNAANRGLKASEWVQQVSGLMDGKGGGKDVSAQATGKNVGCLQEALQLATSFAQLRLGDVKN
Kind of test: GST pull down assay. The conditions noted are these: 20 µM Tanshinone I, ImageJ, average of three repeats.

SMILES strings stand for the structures.

With `Cc1coc2c1C(=O)C(=O)c1c-2ccc2c(C)cccc12` [Tanshinone I], the “Mean density band (N71Y), relative quantification of AlaRS mutant pulled down” value was determined as 0.82.
